The source made the active and inactive calls. No cut-off for these calls is given here.
Experiments:
MDA-MB-231 = assay: Antiproliferative activity against human MDA-MB-231 cells by CCK8 assay
[1] = Stability of compound assessed as carboxylesterase (unknown origin)-mediated drug hydrolysis incubated for 4 hrs by RP-HPLC analysis; assay type: ADME; conditions: human
[2] = Stability of compound in DMEM containing 1 percent DMF at pH 7.4 measured for 24 to 72 hrs; assay type: physicochemical; conditions: buffer, time 24-72 hrs
Tubulin (Homo sapiens) [3] = target: T1, Tubulin (Homo sapiens) (UniProt P68371+Q9H4B7+P0DPH7+P68366+Q13509+Q71U36+P04350+Q3ZCM7+P07437+P68363+Q9BQE3+Q6PEY2+Q13885+Q9BVA1+Q9BUF5); assay: Inhibition of tubulin polymerization (unknown origin) incubated for 65 mins by fluorescence based analysis; assay type: protein-complex assay; conditions: dose 0.625-20 µM
Tubulin (Homo sapiens) [4] = target: T1, Tubulin (Homo sapiens); assay: Disruption of microtubule network in human A549 cells assessed as cell disorganisation at 2.5 to 5 uM incubated for 24 hrs by immunofluorescence based analysis; conditions: dose 2.5-5 µM
A549 [5] = assay: Induction of apoptosis in human A549 cells assessed as early apoptotic cells at 0.5 uM incubated for 24 hrs by Annexin V-FITC/PI staining based flow cytometry (reference value: 3.04 %); assay type: functional
A549 [6] = assay: Induction of apoptosis in human A549 cells assessed as viable cells at 0.25 uM incubated for 24 hrs by Annexin V-FITC/PI staining based flow cytometry (reference value: 95.82 %); assay type: functional; conditions: read-out: Activity
A549 [7] = assay: Induction of apoptosis in human A549 cells assessed as necrotic cells at 0.25 uM incubated for 24 hrs by Annexin V-FITC/PI staining based flow cytometry (reference value: 0.13 %); assay type: functional
A549 [8] = assay: Induction of cell cycle arrest in human A549 cells assessed as accumulation at G1 phase at 0.5 uM incubated for 24 hrs by PI staining based flow cytometry (reference value: 58.67 %); assay type: functional
A549 [9] = assay: Induction of cell cycle arrest in human A549 cells assessed as accumulation at G2 phase at 0.5 uM incubated for 24 hrs by PI staining based flow cytometry (reference value: 3.37 %); assay type: functional
A549 [10] = assay: Induction of mitochondrial membrane potential loss in human A549 cells at 0.25 uM incubated for 24 hrs by JC-1 dye based analysis (reference value: 3.14 %); assay type: functional
A549 [11] = assay: Induction of apoptosis in human A549 cells assessed as decrease in Bcl-2 level at 0.5 uM incubated for 24 hrs by Western blot analysis; assay type: functional, cell-based
A549 [12] = assay: Anti-angiogenesis effect in human A549 cells assessed as disruption of tube-like network formation at 0.25 to 0.5 uM incubated for 6 hrs by tube formation assay; assay type: functional, cell-based; conditions: dose 0.25-0.5 µM
[13] = Toxicity in BALB/c mouse xenografted with human A549 cells assessed as effect on heart at 10 to 20 mg/kg, ip for 3 weeks administered on every 2 days by H and E staining based analysis; assay type: organism-based; conditions: in vivo, 504 h, dose 10-20 mg/kg
[14] = Toxicity in BALB/c mouse xenografted with human A549 cells assessed as effect on liver at 10 to 20 mg/kg, ip for 3 weeks administered on every 2 days by H and E staining based analysis; assay type: organism-based; conditions: in vivo, 504 h, dose 10-20 mg/kg
[15] = Toxicity in BALB/c mouse xenografted with human A549 cells assessed as effect on lung at 10 to 20 mg/kg, ip for 3 weeks administered on every 2 days by H and E staining based analysis; assay type: organism-based; conditions: in vivo, 504 h, dose 10-20 mg/kg

In the case of `CCOP(=O)(OCC)C(Nc1ccc(CC(=O)Oc2cc(/C=C/C(=O)c3cc(OC)c(OC)c(OC)c3)ccc2OC)cc1)c1cccc([N+](=O)[O-])c1` (stereo unspecified), the IC50 (MDA-MB-231) is reported as 296 nM, the Stability [1] is reported as “Unstable” and the Stability [2] is reported as “Stable”. For the same compound, the inhibition (Tubulin (Homo sapiens) [3]) was “Dose-dependent-effect”, the Activity (Tubulin (Homo sapiens) [4]) was “Active” and the Activity (A549 [5]) was 34.86%. The viability at 0.25 µM (A549 [6]) was 79.9%, the Activity (A549 [7]) was 0.3% and the Activity (A549 [8]) was 15.53%. For the same compound, the Activity (A549 [9]) was 81.23%, the Activity (A549 [10]) was 27.19% and the Activity (A549 [11]) was “Active”. The Activity (A549 [12]) was “Active”, the Activity [13] was “Non-toxic” and the Activity [14] was “Non-toxic”. The Activity [15] was “Non-toxic”.

Reference: ChEMBL document CHEMBL6153074, “Discovery of novel dual tubulin and MMPs inhibitors for the treatment of lung cancer and overcoming drug resistance” (Eur J Med Chem, 2025)
